Columns and labels:
Format in all cases: functional
HT-29 = test: Growth inhibition of human HT29 cells
M21 [1] = test: Induction of apoptosis in human M21 cells at 24 uM after 24 hrs
M21 [2] = test: Cell cycle arrest in human M21 cells assessed as accumulation at S phase at 24 uM after 24 hrs
M21 [3] = test: Cell cycle arrest in human M21 cells assessed as accumulation at G1 phase at 24 uM after 24 hrs
M21 [4] = test: Cell cycle arrest in human M21 cells assessed as accumulation at G1 phase at 80 uM after 24 hrs
M21 [5] = test: Growth inhibition of human M21 cells
M21 [6] = test: Cell cycle arrest in human M21 cells assessed as accumulation at S phase at 200 uM after 24 hrs
M21 [7] = test: Cell cycle arrest in human M21 cells assessed as accumulation at G2/M phase at 24 uM after 24 hrs
M21 [8] = test: Cell cycle arrest in human M21 cells assessed as accumulation at G2/M phase at 80 uM after 24 hrs
M21 [9] = test: Induction of apoptosis in human M21 cells at 200 uM after 24 hrs
M21 [10] = test: Cell cycle arrest in human M21 cells assessed as accumulation at G2/M phase at 200 uM after 24 hrs
MCF7 = test: Growth inhibition of human MCF7 cells
M21 [11] = test: Induction of apoptosis in human M21 cells at 80 uM after 24 hrs
MDA-MB-231 = test: Growth inhibition of human MDA-MB-231 cells
M21 [12] = test: Cell cycle arrest in human M21 cells assessed as accumulation at S phase at 80 uM after 24 hrs
M21 [13] = test: Cell cycle arrest in human M21 cells assessed as accumulation at G1 phase at 200 uM after 24 hrs
M21 [14] = test: Induction of apoptosis in human M21 cells at 0.015 uM after 24 hrs
M21 [15] = test: Cell cycle arrest in human M21 cells assessed as accumulation at G2/M phase at 0.015 uM after 24 hrs
M21 [16] = test: Cell cycle arrest in human M21 cells assessed as accumulation at G1 phase at 0.050 uM after 24 hrs
M21 [17] = test: Cell cycle arrest in human M21 cells assessed as accumulation at G2/M phase at 0.125 uM after 24 hrs
M21 [18] = test: Cell cycle arrest in human M21 cells assessed as accumulation at G1 phase at 0.125 uM after 24 hrs
M21 [19] = test: Cell cycle arrest in human M21 cells assessed as accumulation at G1 phase at 0.015 uM after 24 hrs
M21 [20] = test: Cell cycle arrest in human M21 cells assessed as accumulation at S phase at 0.015 uM after 24 hrs
M21 [21] = test: Cell cycle arrest in human M21 cells assessed as accumulation at G2/M phase at 0.050 uM after 24 hrs
M21 [22] = test: Induction of apoptosis in human M21 cells at 0.050 uM after 24 hrs
M21 [23] = test: Cell cycle arrest in human M21 cells assessed as accumulation at S phase at 0.125 uM after 24 hrs
M21 [24] = test: Induction of apoptosis in human M21 cells at 0.125 uM after 24 hrs
M21 [25] = test: Cell cycle arrest in human M21 cells assessed as accumulation at S phase at 0.050 uM after 24 hrs
M21 [26] = test: Cell cycle arrest in human M21 cells assessed as accumulation at G1 phase at 6 uM after 24 hrs
M21 [27] = test: Cell cycle arrest in human M21 cells assessed as accumulation at G1 phase at 21 uM after 24 hrs
M21 [28] = test: Cell cycle arrest in human M21 cells assessed as accumulation at S phase at 21 uM after 24 hrs
M21 [29] = test: Induction of apoptosis in human M21 cells at 6 uM after 24 hrs
M21 [30] = test: Cell cycle arrest in human M21 cells assessed as accumulation at G1 phase at 53 uM after 24 hrs
M21 [31] = test: Cell cycle arrest in human M21 cells assessed as accumulation at G2/M phase at 53 uM after 24 hrs
M21 [32] = test: Induction of apoptosis in human M21 cells at 53 uM after 24 hrs
M21 [33] = test: Cell cycle arrest in human M21 cells assessed as accumulation at S phase at 6 uM after 24 hrs
M21 [34] = test: Cell cycle arrest in human M21 cells assessed as accumulation at G2/M phase at 6 uM after 24 hrs
M21 [35] = test: Cell cycle arrest in human M21 cells assessed as accumulation at S phase at 53 uM after 24 hrs
M21 [36] = test: Induction of apoptosis in human M21 cells at 21 uM after 24 hrs
M21 [37] = test: Cell cycle arrest in human M21 cells assessed as accumulation at G2/M phase at 21 uM after 24 hrs

| Structure (SMILES) | GI50 (HT-29) [µM] | Activity (M21 [1]) [%] | Activity (M21 [2]) [%] | Activity (M21 [3]) [%] | Activity (M21 [4]) [%] | GI50 (M21 [5]) [µM] | Activity (M21 [6]) [%] | Activity (M21 [7]) [%] | Activity (M21 [8]) [%] | Activity (M21 [9]) [%] | Activity (M21 [10]) [%] | GI50 (MCF7) [µM] | Activity (M21 [11]) [%] | GI50 (MDA-MB-231) [µM] | Activity (M21 [12]) [%] | Activity (M21 [13]) [%] | also measured |
| --- | --- | --- | --- | --- | --- | --- | --- | --- | --- | --- | --- | --- | --- | --- | --- | --- | --- |
| COc1ccc(CCc2ccc(NC(=O)NCCCl)cc2)cc1O | 15.3 | 2.8 | 9.9 | 37.8 | 15.5 | 16.3 | 16.3 | 30.2 | 45.1 | 2.6 | 47.9 | 15.9 | 2.3 | 11 | 13.4 | 7.2 |  |
| COc1ccc(/C=C\c2cccc(NC(=O)NCCCl)c2)cc1O | 9.2 | 44.8 | 12.3 | 22.1 | 18.4 | 4 | 10.5 | 12.5 | 35.5 | 21.7 | 41.3 | 4.5 | 15 | 4.9 | 16.4 | 14.7 |  |
| O=C(NCCCl)Nc1cccc(CCCCCO)c1 | 0.16 |  |  |  |  | 0.27 |  |  |  |  |  | 0.48 |  | 0.23 |  |  |  |
| COc1ccc(CCc2cccc(NC(=O)NCCCl)c2)cc1O | 9.6 | 12.5 | 20.7 | 23.8 | 15.2 | 4.7 | 15.7 | 27.5 | 34.9 | 6.9 | 42.6 | 11.6 | 18.7 | 4.1 | 16.4 | 13.5 |  |
| COc1ccc(/C=C/c2cccc(NC(=O)NCCCl)c2)cc1O | 68.2 | 8.3 | 16.6 | 37.2 | 38.1 | 22.7 | 19 | 22.5 | 21.3 | 4.5 | 19.6 | 28.2 | 5.3 | 16.5 | 18.7 | 40.3 |  |
| COc1ccc(/C=C/c2ccc(NC(=O)NCCCl)cc2)cc1O | 1.18 | 9.9 | 12.9 | 38.1 | 38.8 | 8.38 | 21.9 | 19.5 | 21 | 11.9 | 12.4 | 14 | 5.5 | 17.4 | 15.6 | 37.4 |  |
| COc1ccc(/C=C\c2cc(OC)c(OC)c(OC)c2)cc1O [COMBRETASTATIN A4] | 0.089 |  |  |  |  | 0.002 |  |  |  |  |  | 0.003 |  | 0.002 |  |  | Activity (M21 [14]): 10.7%; Activity (M21 [15]): 46.4%; Activity (M21 [16]): 10.1%; Activity (M21 [17]): 45.4%; Activity (M21 [18]): 8.2%; Activity (M21 [19]): 9.4%; Activity (M21 [20]): 15%; Activity (M21 [21]): 40.6%; Activity (M21 [22]): 15.8%; Activity (M21 [23]): 14.7%; Activity (M21 [24]): 11.6%; Activity (M21 [25]): 14.6% |
| COc1ccc(/C=C\c2ccc(NC(=O)NCCCl)cc2)cc1O | 2.4 |  |  |  |  | 0.97 |  |  |  |  |  | 1.65 |  | 0.86 |  |  | Activity (M21 [26]): 11.4%; Activity (M21 [27]): 6.8%; Activity (M21 [28]): 9.7%; Activity (M21 [29]): 10.7%; Activity (M21 [30]): 8.1%; Activity (M21 [31]): 48%; Activity (M21 [32]): 9.7%; Activity (M21 [33]): 15.8%; Activity (M21 [34]): 43.3%; Activity (M21 [35]): 12.5%; Activity (M21 [36]): 17.6%; Activity (M21 [37]): 47.2% |

— ChEMBL document CHEMBL1139148, “N-Phenyl-N'-(2-chloroethyl)urea analogues of combretastatin A-4: Is the N-phenyl-N'-(2-chloroethyl)urea pharmacophore mimicking the trimethoxy phenyl moiety?” (2007)
